Experimental data published in patent publication US9145354B2, “Pharmaceutical compounds” (priority 2011, dated 2015).
Where a name gives a salt, the structure may show the parent alone. Read-outs that look alike come from different tables or passages of the source.

Molecular target: full length NS3/4a (Hepatitis C virus genotype 1b (isolate BK) (HCV), UniProt P26663)
Assay: NS3 Protease Assay (Example A), FRET-based
Assay type: biochemical
Summary of the method: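 Initial rates were taken from fluorescence progress curves over 30 min at room temperature, and IC50 was fitted across replicates. In-house full-length NS3/4a cleaved a FRET peptide (5-FAMsp/QXL520) from the NS4A/B site. Medium: 50 mM Tris pH8, 20 mM DTT, 1% CHAPS, 10% glycerol, 5% DMSO.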

[1] = stated as IC50 less than 30 μM or at least 40% inhibition at a concentration of 100 μM, read-out: IC50 against the protease activity of the full length NS3/4a
[2] = HCV NS3 protease assay, full length NS3/4a, read-out: Assay A IC50 (μM) average
[3] = read-out: IC50 against the protease activity of the full length NS3/4a

Chain of full length NS3/4a (P26663 1027-1657): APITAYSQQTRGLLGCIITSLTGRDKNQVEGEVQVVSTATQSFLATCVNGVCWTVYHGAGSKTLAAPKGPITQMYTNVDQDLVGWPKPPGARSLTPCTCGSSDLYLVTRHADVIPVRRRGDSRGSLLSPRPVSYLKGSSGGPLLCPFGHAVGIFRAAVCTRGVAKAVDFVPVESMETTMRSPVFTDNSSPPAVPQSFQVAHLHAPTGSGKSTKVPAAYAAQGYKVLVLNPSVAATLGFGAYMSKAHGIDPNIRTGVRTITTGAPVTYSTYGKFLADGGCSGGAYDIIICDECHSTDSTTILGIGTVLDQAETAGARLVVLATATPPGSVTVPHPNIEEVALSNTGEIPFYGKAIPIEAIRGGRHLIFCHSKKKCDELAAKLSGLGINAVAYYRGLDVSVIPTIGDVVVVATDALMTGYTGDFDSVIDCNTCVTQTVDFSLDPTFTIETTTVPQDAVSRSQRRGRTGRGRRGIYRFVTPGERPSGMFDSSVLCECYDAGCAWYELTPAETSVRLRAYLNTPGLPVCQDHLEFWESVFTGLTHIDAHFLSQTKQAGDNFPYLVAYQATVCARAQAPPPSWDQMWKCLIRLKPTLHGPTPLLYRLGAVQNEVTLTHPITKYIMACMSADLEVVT

Compound | IC50 [2] | IC50 [3] | further results
CC[C@@H](N[C@@H](C)CC(N)=O)c1ccc(Cl)c(C(=O)c2ccc(C(N)=O)cc2)c1F [Example 146, 4-({3-[(1R)-1-{[(2S)-1-Carbamoylpropan-2-yl]amino}propyl]-6-chloro-2-fluorophenyl}carbonyl)-benzamide] |  |  | inhibition at 0.3 µM: 56%
CC[C@@H](N[C@H](C)CC(N)=O)c1ccc(Cl)c(C(=O)c2ccc(=O)[nH]c2)c1F [Example 148, (3R)-3-{[(1R)-1-{4-chloro-2-fluoro-3-[(6-oxo-1,6-dihydropyridin-3-yl)carbonyl]-phenyl}propyl]amino}-butanamide] |  |  | inhibition at 10 µM: 43%; IC50 [1]: < 30 µM
CC[C@@H](N[C@H](C)CC(N)=O)c1ccc(C)c(C(=O)c2ccccc2)c1F [Example 151, (3R)-3-{[(1R)-1-(3-benzoyl-2-fluoro-4-methylphenyl)propyl]amino}butanamide] | 0.49 µM |  | 
CC[C@@H](N[C@H](C)CC(N)=O)c1ccc(OC)c(C(=O)c2ccccc2)c1F [Example 153, (3R)-3-{[(1R)-1-(3-benzoyl-2-fluoro-4-methoxyphenyl)propyl]amino}butanamide] | 0.49 µM |  | 
C[C@H](CC(N)=O)N[C@@H](c1ccc(Cl)c(C(=O)c2ccc(N)nc2)c1F)C1CC1 [Example 155, (3R)-3-{[(R)-{3-[(6-aminopyridin-3-yl)carbonyl]-4-chloro-2-fluorophenyl}(cyclo-propyl)methyl]amino}-butanamide] | 1 µM | 1 to 5 µM | 
CC[C@@H](N[C@H](C)CC(N)=O)c1ccc(Cl)c(C(=O)c2ccc(N)cn2)c1F [Example 156, (3R)-3-{[(1R)-1-{3-[(5-aminopyridin-2-yl)carbonyl]-4-chloro-2-fluorophenyl}propyl]-amino}butanamide] | 2 µM | 1 to 5 µM | 
CC[C@@H](N[C@H](C)CC(N)=O)c1ccc(F)c(C(=O)c2ccccc2)c1F [Example 158, (3R)-3-{[(1R)-1-(3-benzoyl-2,4-difluorophenyl)propyl]-amino}butanamide] | 0.35 µM |  | 
CC[C@@H](N[C@H](C)CC(N)=O)c1ccc(Cl)c(C(=O)c2ccc(-n3cc(CO)cn3)nc2)c1F [Example 160, (3R)-3-{[(1R)-1-[4-chloro-2-fluoro-3-({6-[4-(hydroxymethyl)-1H-pyrazol-1-yl]pyridin-3-yl}carbonyl)phenyl]-propyl]amino}-butanamide] | 4.2 µM | 1 to 5 µM | 
CC[C@@H](NCCO)c1ccc(Cl)c(C(=O)c2cccnc2)c1F [Example 163, 2-{[(1R)-1-{4-Chloro-2-fluoro-3-[(pyridin-3-yl)carbonyl]phenyl}propyl]amino}ethan-1-ol] |  |  | inhibition at 10 µM: 62%; IC50 [1]: < 30 µM
CC[C@@H](NCC(N)=O)c1ccc(Cl)c(C(=O)c2cccnc2)c1F [Example 164, 2-{[(1R)-1-{4-Chloro-2-fluoro-3-[(pyridin-3-yl)carbonyl]phenyl}propyl]amino}-acetamide] |  |  | inhibition at 10 µM: 37%
CC[C@@H](N[C@@H](C)CO)c1ccc(Cl)c(C(=O)c2cccnc2)c1F [Example 165, (2S)-2-{[(1R)-1-{4-chloro-2-fluoro-3-[(pyridin-3-yl)carbonyl]phenyl}-propyl]amino}-propan-1-ol] | 1.4 µM | 1 to 5 µM | 
CC[C@@H](N[C@H](C)CO)c1ccc(Cl)c(C(=O)c2cccnc2)c1F [Example 166, (2R)-2-{[(1R)-1-{4-chloro-2-fluoro-3-[(pyridin-3-yl)carbonyl}phenyI}-propyl]amino}propan-1-ol] | 6.3 µM |  | IC50 [1]: < 30 µM
CC[C@@H](N[C@H](C)C(N)=O)c1ccc(Cl)c(C(=O)c2cccnc2)c1F [Example 169, (2R)-2-{[(1R)-1-{4-chloro-2-fluoro-3-[(pyridin-3-yl)carbonyl]phenyI}-propyl]amino}propanamide] |  |  | Assay A % inhibition average (@ 100 uM): 53% @ 100 uM; IC50 [1]: < 30 µM
CC[C@@H](N[C@@H](C)C(N)=O)c1ccc(Cl)c(C(=O)c2cccnc2)c1F [Example 170, (2S)-2-{[(1R)-1-{4-chloro-2-fluoro-3-[(pyridin-3-yl)carbonyl]phenyl}-propyl]amino}-propanamide] |  | 1 to 5 µM | inhibition at 3 µM (@ 3 uM): 55%
CC[C@@H](NCC(C)(C)C(N)=O)c1ccc(Cl)c(C(=O)c2cccnc2)c1F [Example 172, 3-{(R)-1-[4-Chloro-2-fluoro-3-(pyridine-3-carbonyl)-phenyl]-propylamino}-2,2-dimethyl-propionamide] | 1.6 µM | 1 to 5 µM | 
CC[C@H](NCCO)c1ccc(Cl)c(C(=O)c2ccc(N)nc2)c1F [Example 173, 2-{[(1S)-1-{3-[(6-aminopyridin-3-yl)carbonyl]-4-chloro-2-fluorophenyl}propyl]-amino}ethan-1-ol] | 0.13 µM | < 1 µM | 
CC[C@@H](NC[C@@H](C)C(N)=O)c1ccc(Cl)c(C(=O)c2cccnc2)c1F.Cl [Example 174, 2R)-3-{[(1R)-1-{4-chloro-2-fluoro-3-[(pyridin-3-yl)carbonyl]phenyl}-propyl]amino}-2-methylpropanamide HCl (1:1] |  |  | Assay A % inhibition average: 47% @ 30 uM; IC50 [1]: < 30 µM

Compound | IC50 [2] | IC50 [3] | further results
CC[C@@H](NCCCO)c1ccc(Cl)c(C(=O)c2ccccc2)c1F [Example 181, 3-{[(1R)-1-(3-benzoyl-4-chloro-2-fluorophenyl)propyl]-amino}propan-1-ol] | 0.26 µM |  | 
CC[C@H](NCCCO)c1ccc(Cl)c(C(=O)c2ccccc2)c1F [Example 182, 3-{[(1S)-1-(3-benzoyl-4-chloro-2-fluorophenyl)propyl]-amino}propan-1-ol] | 0.038 µM |  | 
CCC(NC1(C(N)=O)CC1)c1ccc(Cl)c(C(=O)c2ccccc2)c1F (centres unmarked) [Example 184, 1-[1-(3-Benzoyl-4-chloro-2-fluorophenyl)-propylamino]-cyclopropanecarboxylic acid amide.HCl] |  |  | inhibition at 10 µM: 22%
NC(=O)CCN[C@@H](c1ccc(Cl)c(C(=O)c2cnc(N)cn2)c1F)C1CC1 [Example 185, 3-{[(R)-{3-[(5-aminopyrazin-2-yl)carbonyl]-4-chloro-2-fluorophenyl}(cyclo-propyl)methyl]amino}-propanamide] | 0.6 µM |  | 
CC[C@@H](N[C@@H](C)CC(N)=O)c1ccc(Cl)c(C(=O)c2ccc(CO)cc2)c1F [Example 186, (3S)-3-{[(1R)-1-(4-chloro-2-fluoro-3-{[4-(hydroxymethyl)-phenyl]carbonyl}phenyl)propyl]amino}-butanamide] | 0.11 µM |  | 
CC[C@@H](N[C@H](C)CC(N)=O)c1ccc(Cl)c(C(=O)c2ccc(CO)cc2)c1F [Example 187, (3R)-3-{[(1R)-1-(4-chloro-2-fluoro-3-{[4-(hydroxymethyl)-phenyl]-carbonyl}phenyl)-propyl]amino}butanamide] | 0.66 µM |  | 
CC[C@@H](N[C@@H](C)CC(N)=O)c1ccc(Cl)c(C(=O)c2cccc(CO)c2)c1F [Example 188, (3S)-3-{[(1R)-1-(4-chloro-2-fluoro-3-{[3-(hydroxymethyl)-phenyl]carbonyl}phenyl)-propyl]amino}butanamide] | 0.14 µM |  | 
CC[C@@H](N[C@H](C)CC(N)=O)c1ccc(Cl)c(C(=O)c2cccc(CO)c2)c1F [Example 189, (3R)-3-{[(1R)-1-(4-chloro-2-fluoro-3-{[3-(hydroxymethyl)-phenyl]-carbonyl}phenyl)-propyl]amino}butanamide] | 0.54 µM |  | 
C[C@H](CC(N)=O)N[C@@H](c1ccc(Cl)c(C(=O)c2ccc(N)c(C#N)c2)c1F)C1CC1 [Example 190, (3R)-3-{[(R)-{3-[(4-amino-3-cyanophenyl)carbonyl]-4-chloro-2-fluorophenyl}(cyclopropyl)methyl]amino}butanamide] | 0.37 µM |  | IC50 [1]: < 30 µM
CC[C@@H](N)c1ccc(OC)c(C(=O)c2ccc(F)cc2)c1F [Example 191, (1R)-1-{2-fluoro-3-[(4-fluorophenyl)carbonyl]-4-methoxyphenyl}-propan-1-amine] | 1.1 µM | 1 to 5 µM | 
CC[C@@H](N[C@@H](C)CC(N)=O)c1ccc(Cl)c(C(=O)c2cnc(NC)cn2)c1F [Example 192, (3S)-3-{[(1R)-1-(4-chloro-2-fluoro-3-{[5-(methylamino)-pyrazin-2-yl]carbonyl}-phenyl)propyl]-amino}butanamide] | 0.63 µM | < 1 µM | 
C[C@@H](CC(N)=O)N[C@@H](c1ccc(Cl)c(C(=O)c2cnc(N)cn2)c1F)C1CC1 [Example 194, (3S)-3-{[(R)-{3-[(5-aminopyrazin-2-yl)carbonyl]-4-chloro-2-fluorophenyl}(cyclo-propyl)methyl]amino}-butanamide] |  |  | inhibition at 0.3 µM: 28%
C[C@H](CC(N)=O)N[C@@H](c1ccc(Cl)c(C(=O)c2cnc(N)cn2)c1F)C1CC1 [Example 195, (3R)-3-{[(R)-{3-[(5-aminopyrazin-2-yl)carbonyl]-4-chloro-2-fluorophenyl}(cyclo-propyl)methyl]amino}-butanamide] | 6.2 µM |  | IC50 [1]: < 30 µM
COc1ccc([C@H](N)C2CC2)c(F)c1C(=O)c1ccc(F)cc1 [Example 196, (R)-cyclopropyl({2-fluoro-3-[(4-fluorophenyl)carbonyl]-4-methoxyphenyl})methanamine] | 2.3 µM | 1 to 5 µM | 
CC[C@@H](N)c1ccc(Cl)c(C(=O)c2ccc(N)nn2)c1F [Example 197, 6-({3-[(1R)-1-Aminopropyl]-6-chloro-2-fluorophenyl}carbonyl)pyridazin-3-amine] |  |  | inhibition at 10 µM: 45%; IC50 [1]: < 30 µM
CC[C@@H](N)c1ccc(OC)c(C(=O)c2cccc(F)c2)c1F [Example 198, (1R)-1-{2-fluoro-3-[(3-fluorophenyl)carbonyl]-4-methoxyphenyl}propan-1-amine] | 2.4 µM | 1 to 5 µM | 
CC[C@@H](N[C@H](C)CC(N)=O)c1ccc(OC)c(C(=O)c2ccc(F)cc2)c1F [Example 199, (3R)-3-{[(1R)-1-{2-fluoro-3-[(4-fluorophenyl)carbonyl]-4-methoxyphenyl}propyl]amino}butanamide] |  |  | inhibition at 100 µM (@ 100 uM): 32%
